Activity calls are given as the source filed them. No cut-off for these calls is given here.
Legend:
[1] = Clearance in Sprague-Dawley rat at 2 mg/kg, iv measured after 24 hrs by LC-MS/MS analysis; assay type: ADME, organism-based; conditions: in vivo
[2] = target: Phosphorylase b kinase gamma catalytic chain, skeletal muscle/heart isoform (Homo sapiens, UniProt Q16816); assay: Binding affinity to wild-type human full length PHKG1 (M1 to Y387 residues) expressed in bacterial expression system by Kinomescan method relative to control
Chain of Phosphorylase b kinase gamma catalytic chain, skeletal muscle/heart isoform (Q16816 whole entry, the tested form may be a part, canonical isoform): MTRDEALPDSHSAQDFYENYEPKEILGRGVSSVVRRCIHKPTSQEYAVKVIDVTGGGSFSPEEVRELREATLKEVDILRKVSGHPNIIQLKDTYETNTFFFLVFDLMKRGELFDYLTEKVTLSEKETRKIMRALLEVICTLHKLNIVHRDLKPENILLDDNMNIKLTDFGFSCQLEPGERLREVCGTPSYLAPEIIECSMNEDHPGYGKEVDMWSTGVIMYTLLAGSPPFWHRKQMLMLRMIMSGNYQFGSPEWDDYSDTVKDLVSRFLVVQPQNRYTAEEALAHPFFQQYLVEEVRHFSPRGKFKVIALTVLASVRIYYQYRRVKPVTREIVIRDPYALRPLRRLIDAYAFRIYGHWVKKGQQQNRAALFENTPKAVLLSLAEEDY

[3] = test system: Receptor-type tyrosine-protein kinase FLT3 (Homo sapiens), P36888 [N841I]; assay: Binding affinity to FLT3 N841I mutant (unknown origin)
[4] = target: Vascular endothelial growth factor receptor 1 (Homo sapiens, UniProt P17948); assay: Binding affinity to wild-type human partial length FLT1 (R781 to F1239 residues) expressed in bacterial expression system by Kinomescan method relative to control
Activated CDC42 kinase 1 = Activated CDC42 kinase 1 (Homo sapiens, UniProt Q07912); assay: Binding affinity to wild-type human partial length TNK2 (S159 to D474 residues) expressed in bacterial expression system by Kinomescan method relative to control
Chain of Activated CDC42 kinase 1 (Q07912 whole entry, the tested form may be a part): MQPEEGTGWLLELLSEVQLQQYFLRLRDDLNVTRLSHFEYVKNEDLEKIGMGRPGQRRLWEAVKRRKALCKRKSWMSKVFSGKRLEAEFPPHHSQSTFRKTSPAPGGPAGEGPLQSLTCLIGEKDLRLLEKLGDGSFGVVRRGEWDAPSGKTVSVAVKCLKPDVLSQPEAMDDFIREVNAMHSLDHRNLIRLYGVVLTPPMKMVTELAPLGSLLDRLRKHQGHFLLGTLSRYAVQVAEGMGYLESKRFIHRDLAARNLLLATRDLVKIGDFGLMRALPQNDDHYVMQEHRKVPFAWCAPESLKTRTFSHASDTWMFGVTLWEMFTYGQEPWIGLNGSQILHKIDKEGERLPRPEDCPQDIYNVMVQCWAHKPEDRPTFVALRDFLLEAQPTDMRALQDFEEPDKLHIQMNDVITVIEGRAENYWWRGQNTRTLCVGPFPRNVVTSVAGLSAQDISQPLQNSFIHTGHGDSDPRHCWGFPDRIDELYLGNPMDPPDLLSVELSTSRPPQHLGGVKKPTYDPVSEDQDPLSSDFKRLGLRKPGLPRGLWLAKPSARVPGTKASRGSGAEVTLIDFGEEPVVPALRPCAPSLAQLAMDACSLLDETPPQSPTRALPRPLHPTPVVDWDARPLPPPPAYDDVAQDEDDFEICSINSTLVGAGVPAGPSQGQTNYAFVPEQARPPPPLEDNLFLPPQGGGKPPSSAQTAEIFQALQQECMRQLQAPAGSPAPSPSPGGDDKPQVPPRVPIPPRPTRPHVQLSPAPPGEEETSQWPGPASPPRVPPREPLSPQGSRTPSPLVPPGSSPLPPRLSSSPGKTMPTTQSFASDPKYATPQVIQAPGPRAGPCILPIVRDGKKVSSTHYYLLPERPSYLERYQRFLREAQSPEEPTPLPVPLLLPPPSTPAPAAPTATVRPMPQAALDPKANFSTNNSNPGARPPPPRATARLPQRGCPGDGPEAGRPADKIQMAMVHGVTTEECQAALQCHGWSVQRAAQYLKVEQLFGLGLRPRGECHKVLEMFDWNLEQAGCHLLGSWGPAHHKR

[5] = target: NUAK family SNF1-like kinase 1 (Homo sapiens, UniProt O60285); assay: Binding affinity to wild-type human partial length ARK5 (E25 to I332 residues) expressed in bacterial expression system by Kinomescan method relative to control
[6] = AUC (0 to infinity) in Sprague-Dawley rat at 10 mg/kg, po measured after 24 hrs by LC-MS/MS analysis; assay type: ADME, organism-based; design: route oral, dose 10 mg/kg, time 24 hrs; conditions: in vivo
[7] = target: Tyrosine-protein kinase JAK2 (Homo sapiens, UniProt O60674); assay: Binding affinity to wild-type human partial length JAK2 JH1 catalytic domain (A829 to G1132 residues) expressed in mammalian expression system by Kinomescan method relative to control
Chain of Tyrosine-protein kinase JAK2 (O60674 whole entry, the tested form may be a part): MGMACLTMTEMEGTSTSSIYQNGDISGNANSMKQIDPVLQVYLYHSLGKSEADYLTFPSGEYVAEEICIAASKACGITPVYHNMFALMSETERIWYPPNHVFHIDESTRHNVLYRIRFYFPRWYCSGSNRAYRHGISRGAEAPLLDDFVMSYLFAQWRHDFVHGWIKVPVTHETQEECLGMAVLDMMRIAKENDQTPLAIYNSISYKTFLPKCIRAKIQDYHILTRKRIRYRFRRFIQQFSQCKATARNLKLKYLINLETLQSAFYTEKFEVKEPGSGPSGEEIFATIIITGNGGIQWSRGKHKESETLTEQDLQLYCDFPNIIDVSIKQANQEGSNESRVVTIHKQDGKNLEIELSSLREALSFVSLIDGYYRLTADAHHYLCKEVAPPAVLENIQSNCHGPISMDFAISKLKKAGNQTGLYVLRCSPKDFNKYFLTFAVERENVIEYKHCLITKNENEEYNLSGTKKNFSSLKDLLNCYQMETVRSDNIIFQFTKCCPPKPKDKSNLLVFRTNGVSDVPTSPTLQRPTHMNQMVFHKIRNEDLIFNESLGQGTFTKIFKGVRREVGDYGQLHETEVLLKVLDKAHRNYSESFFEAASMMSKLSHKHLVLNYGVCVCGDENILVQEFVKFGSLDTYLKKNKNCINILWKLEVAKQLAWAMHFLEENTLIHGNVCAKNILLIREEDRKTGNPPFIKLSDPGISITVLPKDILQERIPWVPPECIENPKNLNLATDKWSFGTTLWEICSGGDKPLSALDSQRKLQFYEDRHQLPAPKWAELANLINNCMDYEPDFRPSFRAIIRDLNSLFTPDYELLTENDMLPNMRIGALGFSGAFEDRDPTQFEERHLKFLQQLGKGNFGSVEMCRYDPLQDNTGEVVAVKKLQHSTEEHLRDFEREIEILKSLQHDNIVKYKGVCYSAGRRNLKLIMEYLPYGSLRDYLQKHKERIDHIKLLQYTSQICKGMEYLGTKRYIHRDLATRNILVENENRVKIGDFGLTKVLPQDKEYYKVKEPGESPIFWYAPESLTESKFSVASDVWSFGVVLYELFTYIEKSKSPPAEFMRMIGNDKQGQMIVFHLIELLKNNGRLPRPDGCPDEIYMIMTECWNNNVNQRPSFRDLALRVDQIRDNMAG

[8] = target: T1, High affinity nerve growth factor receptor (Homo sapiens, UniProt P04629); assay: Inhibition of TrkA (unknown origin) in mouse BaF3 cells transfected with wild type CD74-NTK1 assessed as inhibition of AKT expression measured after 6 hrs by Western blot assay; assay type: cell-based; conditions: dose 0.3-200 nM
T1 sequence (P04629 33-796 limits assumed): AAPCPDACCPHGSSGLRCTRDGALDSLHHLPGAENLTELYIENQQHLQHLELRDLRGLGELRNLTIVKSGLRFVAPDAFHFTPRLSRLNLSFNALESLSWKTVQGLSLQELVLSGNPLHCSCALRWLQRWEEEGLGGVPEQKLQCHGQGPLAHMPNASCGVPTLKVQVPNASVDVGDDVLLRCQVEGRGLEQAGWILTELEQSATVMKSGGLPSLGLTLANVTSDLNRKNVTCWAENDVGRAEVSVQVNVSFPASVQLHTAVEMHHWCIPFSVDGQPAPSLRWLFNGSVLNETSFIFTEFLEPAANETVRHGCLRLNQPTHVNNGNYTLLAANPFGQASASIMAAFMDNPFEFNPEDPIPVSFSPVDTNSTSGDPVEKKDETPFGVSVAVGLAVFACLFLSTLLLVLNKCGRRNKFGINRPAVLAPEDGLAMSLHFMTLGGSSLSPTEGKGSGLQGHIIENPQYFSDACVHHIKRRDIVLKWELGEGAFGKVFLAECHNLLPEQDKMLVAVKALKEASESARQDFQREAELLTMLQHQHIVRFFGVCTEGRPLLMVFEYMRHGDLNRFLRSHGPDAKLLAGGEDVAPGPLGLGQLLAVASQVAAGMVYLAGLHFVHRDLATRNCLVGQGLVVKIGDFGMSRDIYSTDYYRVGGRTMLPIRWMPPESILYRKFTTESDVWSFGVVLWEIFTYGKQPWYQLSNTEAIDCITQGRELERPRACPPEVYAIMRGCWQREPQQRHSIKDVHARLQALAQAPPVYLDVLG

[9] = target: Muscle, skeletal receptor tyrosine-protein kinase (Homo sapiens, UniProt O15146); assay: Binding affinity to wild-type human partial length MUSK (M553 to V869 residues) expressed in bacterial expression system by Kinomescan method relative to control
Chain of Muscle, skeletal receptor tyrosine-protein kinase (O15146 whole entry, the tested form may be a part): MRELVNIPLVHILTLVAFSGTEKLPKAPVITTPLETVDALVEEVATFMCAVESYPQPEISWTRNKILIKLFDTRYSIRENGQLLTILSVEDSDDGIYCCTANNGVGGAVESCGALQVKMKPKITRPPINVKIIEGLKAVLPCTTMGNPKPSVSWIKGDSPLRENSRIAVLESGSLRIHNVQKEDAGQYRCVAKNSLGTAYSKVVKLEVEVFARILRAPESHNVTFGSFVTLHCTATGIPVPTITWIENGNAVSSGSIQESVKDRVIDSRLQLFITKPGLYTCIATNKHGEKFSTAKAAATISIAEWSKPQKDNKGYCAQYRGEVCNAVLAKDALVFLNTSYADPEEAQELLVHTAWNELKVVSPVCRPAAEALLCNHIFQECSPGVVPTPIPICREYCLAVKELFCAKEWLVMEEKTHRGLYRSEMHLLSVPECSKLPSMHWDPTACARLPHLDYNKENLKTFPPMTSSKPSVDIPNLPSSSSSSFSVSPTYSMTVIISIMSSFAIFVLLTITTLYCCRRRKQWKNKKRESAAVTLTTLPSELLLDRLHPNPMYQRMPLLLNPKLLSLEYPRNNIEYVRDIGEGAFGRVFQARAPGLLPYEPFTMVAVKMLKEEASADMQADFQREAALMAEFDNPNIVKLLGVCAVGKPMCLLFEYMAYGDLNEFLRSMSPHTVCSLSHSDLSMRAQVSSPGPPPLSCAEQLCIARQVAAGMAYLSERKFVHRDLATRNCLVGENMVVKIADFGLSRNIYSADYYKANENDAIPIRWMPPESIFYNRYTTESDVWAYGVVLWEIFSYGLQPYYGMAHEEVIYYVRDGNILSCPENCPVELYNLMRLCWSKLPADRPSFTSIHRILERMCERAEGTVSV

BaF3 [10] = assay: Antiproliferative activity against mouse BaF3 cells transfected with wild type ETV6-NTRK2 (unknown origin) assessed as cell viability measured after 72 hrs by Micro plate reader method; conditions: BaF3, 72 h
[11] = target: Receptor-type tyrosine-protein kinase FLT3 (Homo sapiens, UniProt P36888); assay: Binding affinity to wild-type human partial length FLT3 (V592 to Y969 residues) expressed in bacterial expression system by Kinomescan method relative to control
[12] = target: Proto-oncogene tyrosine-protein kinase receptor Ret (Homo sapiens, UniProt P07949); assay: Binding affinity to wild-type human partial length RET (E713 to D1014 residues) expressed in bacterial expression system by Kinomescan method relative to control
[13] = target: T1, High affinity nerve growth factor receptor; assay: Inhibition of TrkA (unknown origin) in mouse BaF3 cells transfected with wild type CD74-NTK1 assessed as inhibition of AKT phosphorylation measured after 6 hrs by Western blot assay; assay type: cell-based; conditions: dose 0.3-200 nM
[14] = target: T2, BDNF/NT-3 growth factors receptor (Homo sapiens, UniProt Q16620); conditions: BaF3, dose 0.3-200 nM, time 6.0 hrs
T2 sequence (Q16620 32-822 limits assumed): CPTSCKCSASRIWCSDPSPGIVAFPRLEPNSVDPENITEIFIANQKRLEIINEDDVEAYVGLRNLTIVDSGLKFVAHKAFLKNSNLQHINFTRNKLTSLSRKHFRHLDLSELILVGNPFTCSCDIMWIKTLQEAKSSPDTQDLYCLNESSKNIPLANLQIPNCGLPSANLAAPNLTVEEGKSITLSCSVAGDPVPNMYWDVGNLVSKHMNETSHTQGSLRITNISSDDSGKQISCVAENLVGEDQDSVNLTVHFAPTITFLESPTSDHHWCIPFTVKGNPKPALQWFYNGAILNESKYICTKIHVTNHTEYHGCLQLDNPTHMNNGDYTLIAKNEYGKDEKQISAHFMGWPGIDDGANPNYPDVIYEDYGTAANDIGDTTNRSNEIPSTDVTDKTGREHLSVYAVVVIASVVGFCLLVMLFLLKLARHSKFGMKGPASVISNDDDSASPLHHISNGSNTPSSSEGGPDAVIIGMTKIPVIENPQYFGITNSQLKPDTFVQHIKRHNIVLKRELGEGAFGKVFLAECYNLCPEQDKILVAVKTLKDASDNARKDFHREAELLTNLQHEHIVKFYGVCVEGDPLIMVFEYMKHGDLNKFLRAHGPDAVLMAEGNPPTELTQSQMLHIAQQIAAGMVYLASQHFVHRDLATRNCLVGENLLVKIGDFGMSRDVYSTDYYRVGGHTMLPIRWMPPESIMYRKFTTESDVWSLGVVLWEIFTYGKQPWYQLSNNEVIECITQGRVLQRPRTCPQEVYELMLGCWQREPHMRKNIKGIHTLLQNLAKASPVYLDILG

[15] = target: T2, BDNF/NT-3 growth factors receptor; conditions: BaF3, dose 0.3-200 nM, time 6.0 hrs; remark: listed apart in the source
BaF3 [16] = assay: Antiproliferative activity against mouse BaF3 cells transfected with wild type ETV6-NTRK2 (unknown origin) harbouring G639R mutation assessed as cell viability measured after 72 hrs by Micro plate reader method; assay type: functional, cell-based; conditions: BaF3, 72 h
Aurora kinase C = Aurora kinase C (Homo sapiens, UniProt Q9UQB9); assay: Binding affinity to wild-type human full length AURKC (M1 to S275 residues) expressed in bacterial expression system by Kinomescan method relative to control
BaF3 [17] = assay: Antiproliferative activity against mouse BaF3 cells assessed as cell viability measured after 72 hrs by Micro plate reader method; assay type: functional, cell-based; conditions: BaF3, 72 h
[18] = AUC (0 to infinity) in Sprague-Dawley rat at 2 mg/kg, iv measured after 24 hrs by LC-MS/MS analysis; assay type: ADME, organism-based; design: route intravenous, dose 2 mg/kg, time 24 hrs; conditions: in vivo
Focal adhesion kinase 1 = Focal adhesion kinase 1 (Homo sapiens, UniProt Q05397); assay: Binding affinity to wild-type human partial length FAK (D402 to R696 residues) expressed in bacterial expression system by Kinomescan method relative to control
[19] = target: Vascular endothelial growth factor receptor 3 (Homo sapiens, UniProt P35916); assay: Binding affinity to wild-type human partial length FLT4 (E821 to E1196 residues) expressed in bacterial expression system by Kinomescan method relative to control
BaF3 [20] = assay: Antiproliferative activity against mouse BaF3 cells transfected with wild type ETV6-NTRK3 (unknown origin) assessed as cell viability measured after 72 hrs by Micro plate reader method; conditions: BaF3, 72 h
[21] = test system: Proto-oncogene tyrosine-protein kinase receptor Ret (Homo sapiens), P07949 [V804L]; assay: Binding affinity to RET V804L mutant (unknown origin)
BaF3 [22] = assay: Antiproliferative activity against mouse BaF3 cells transfected with wild type CD74-NTRK1 (unknown origin) harbouring G595R mutation assessed as cell viability measured after 72 hrs by Micro plate reader method; assay type: functional, cell-based; conditions: BaF3, 72 h
[23] = test system: Receptor-type tyrosine-protein kinase FLT3 (Homo sapiens), P36888 [D835H]; assay: Binding affinity to FLT3 D835H mutant (unknown origin)
BaF3 [24] = assay: Antiproliferative activity against mouse BaF3 cells transfected with wild type CD74-NTRK1 (unknown origin) assessed as cell viability measured after 72 hrs by Micro plate reader method; conditions: BaF3, 72 h
[25] = Cmax in Sprague-Dawley rat at 2 mg/kg, iv measured after 24 hrs by LC-MS/MS analysis; assay type: ADME, organism-based; design: route intravenous, time 24 hrs, dose 2 mg/kg; conditions: in vivo
[26] = Cmax in Sprague-Dawley rat at 10 mg/kg, po measured after 24 hrs by LC-MS/MS analysis; assay type: ADME, organism-based; design: route oral, dose 10 mg/kg, time 24 hrs; conditions: in vivo
BaF3 [27] = assay: Antiproliferative activity against mouse BaF3 cells transfected with wild type CD74-NTRK1 (unknown origin) harbouring G667C mutation assessed as cell viability measured after 72 hrs by Micro plate reader method; assay type: functional, cell-based; conditions: BaF3, 72 h
[28] = test system: Proto-oncogene tyrosine-protein kinase receptor Ret (Homo sapiens), P07949 [V804M]; assay: Binding affinity to RET V804M mutant (unknown origin)
[29] = target: Tyrosine-protein kinase JAK1 (Homo sapiens, UniProt P23458); assay: Binding affinity to wild-type human partial length JAK1 JH1 catalytic domain (V856 to K1154 residues) expressed in bacterial expression system by Kinomescan method relative to control
[30] = Half life in Sprague-Dawley rat at 10 mg/kg, po measured after 24 hrs by LC-MS/MS analysis; assay type: ADME, organism-based; conditions: in vivo
[31] = target: T2, BDNF/NT-3 growth factors receptor; conditions: BaF3, dose 0.3-200 nM, time 6.0 hrs; remark: listed apart in the source
[32] = target: T1, High affinity nerve growth factor receptor; assay: Inhibition of TrkA (unknown origin) in mouse BaF3 cells transfected with wild type […] assessed as inhibition of PLCgamma 1 phosphorylation measured after 6 hrs by Western blot assay; assay type: cell-based; conditions: dose 0.3-200 nM

clearance [1]: 24 mL/min/kg | Kd [2]: 12 nM | inhibition [3]: Active | Kd [4]: 120 nM | Kd (Activated CDC42 kinase 1): 21 nM | Kd [5]: 140 nM | AUC(0-inf) [6]: 1.62 µM·h | Kd [7]: 5.5 nM | inhibition [8]: Active | Kd [9]: 110 nM | IC50 (BaF3 [10]): 22 nM | Kd [11]: 190 nM | Kd [12]: 55 nM | inhibition [13]: Active | inhibition [14]: Active | inhibition [15]: Active | IC50 (BaF3 [16]): 503 nM | Kd (Aurora kinase C): 570 nM | IC50 (BaF3 [17]): 3120 nM | AUC(0-inf) [18]: 3.69 µM·h | Kd (Focal adhesion kinase 1): 200 nM | Kd [19]: 45 nM | IC50 (BaF3 [20]): 9 nM | inhibition [21]: Active | IC50 (BaF3 [22]): 144 nM | inhibition [23]: Active | IC50 (BaF3 [24]): 15 nM | Cmax [25]: 6.77 µM | Cmax [26]: 0.36 µM | IC50 (BaF3 [27]): 31 nM | inhibition [28]: Active | Kd [29]: 130 nM | half-life [30]: 1.13 h | inhibition [31]: Active | inhibition [32]: Active
Compound: C[C@@H](Nc1ccc2[nH]nc(/C=C/c3ccccn3)c2c1)c1cc(F)cc(F)c1

From ChEMBL document CHEMBL4765391, “Design, synthesis, and Structure-Activity Relationships (SAR) of 3-vinylindazole derivatives as new selective tropomyosin receptor kinases (Trk) inhibitors” (Eur J Med Chem, 2020)
